These are literature values, as cited in paper PMC11481577, “Allosteric coupling of substrate binding and proton translocation in MmpL3 transporter from Mycobacterium tuberculosis” (mBio, 2024).

The target in this data set is MmpL3. Particulars: previously measured; read-out: affinity to MmpL3; cited from earlier work.

Consider phosphatidylethanolamine [PE], for which the Kd was 19.5 ± 6.3 µM.

As to trehalose monomycolates [TMM], the Kd was 3.7 ± 1.3 µM.
